Measurements as given in ChEMBL document CHEMBL1144507, “Synthesis and antifungal activity of (Z)-5-arylidenerhodanines” (2007).
Values after ≈ are worked out from the molar mass of the structure shown.

Columns and labels:
Cryptococcus neoformans = test: Antifungal activity against Cryptococcus neoformans ATCC 32264 after 48 hrs; type: functional; details: ATCC 32264, 48 h
Candida albicans = test: Antifungal activity against Candida albicans ATCC 10231 after 48 hrs; type: functional; details: ATCC 10231, 48 h
Trichophyton rubrum [1] = test: Antifungal activity against Trichophyton rubrum C136 after 48 hrs; type: functional
Trichophyton rubrum [2] = test: Antifungal activity against Trichophyton rubrum C137 after 48 hrs; type: functional
Trichophyton rubrum [3] = test: Antifungal activity against Trichophyton rubrum C113 after 48 hrs; type: functional
Nannizzia gypsea = test: Antifungal activity against Microsporum gypseum C115 after 48 hrs; type: functional
Saccharomyces cerevisiae = test: Antifungal activity against Saccharomyces cerevisiae ATCC 9763 after 48 hrs; type: functional; details: ATCC 9763, 48 h
Trichophyton rubrum [4] = test: Antifungal activity against Trichophyton rubrum C135 after 48 hrs; type: functional
Trichophyton benhamiae [5] = test: Antifungal activity against Trichophyton mentagrophytes C738 after 48 hrs; type: functional, Arthroderma benhamiae
Trichophyton rubrum [6] = test: Antifungal activity against Trichophyton rubrum C139 after 48 hrs; type: functional
Trichophyton rubrum [7] = test: Antifungal activity against Trichophyton rubrum C110 after 48 hrs; type: functional
Trichophyton benhamiae [8] = test: Antifungal activity against Trichophyton mentagrophytes C943 after 48 hrs; type: functional, Arthroderma benhamiae
Aspergillus fumigatus = test: Antifungal activity against Aspergillus fumigatus ATCC 26934 after 48 hrs; type: functional; details: ATCC 26934, 48 h
Aspergillus flavus = test: Antifungal activity against Aspergillus flavus ATCC 9170 after 48 hrs; type: functional; details: ATCC 9170, 48 h
Trichophyton benhamiae [9] = test: Antifungal activity against Trichophyton mentagrophytes C539 after 48 hrs; type: functional, Arthroderma benhamiae
Trichophyton benhamiae [10] = test: Antifungal activity against Trichophyton mentagrophytes ATCC 9972 after 48 hrs; type: functional, Arthroderma benhamiae; details: ATCC 9972, 48 h
Aspergillus niger = test: Antifungal activity against Aspergillus niger ATCC 9029 after 48 hrs; type: functional; details: ATCC 9029, 48 h
Trichophyton benhamiae [11] = test: Antifungal activity against Trichophyton mentagrophytes C364 after 48 hrs; type: functional, Arthroderma benhamiae
Trichophyton rubrum [12] = test: Antifungal activity against Trichophyton rubrum C140 after 48 hrs; type: functional
Trichophyton benhamiae [13] = test: Antifungal activity against Trichophyton mentagrophytes C108 after 48 hrs; type: functional, Arthroderma benhamiae

MIC (Cryptococcus neoformans): 15.6 µg/mL (≈ 53.9 µM)
MIC (Candida albicans): 250 µg/mL (≈ 864 µM)
MIC (Trichophyton rubrum [1]): 3.9 µg/mL (≈ 13.5 µM)
MIC (Trichophyton rubrum [2]): 1.95 µg/mL (≈ 6.74 µM)
MIC (Trichophyton rubrum [3]): 3.9 µg/mL (≈ 13.5 µM)
MIC (Nannizzia gypsea): 3.9 µg/mL (≈ 13.5 µM)
MIC (Saccharomyces cerevisiae): 250 µg/mL (≈ 864 µM)
MIC (Trichophyton rubrum [4]): 3.9 µg/mL (≈ 13.5 µM)
MIC (Trichophyton benhamiae [5]): 1.95 µg/mL (≈ 6.74 µM)
MIC (Trichophyton rubrum [6]): 3.9 µg/mL (≈ 13.5 µM)
MIC (Trichophyton rubrum [7]): 3.9 µg/mL (≈ 13.5 µM)
MIC (Trichophyton benhamiae [8]): 0.97 µg/mL (≈ 3.35 µM)
MIC (Aspergillus fumigatus): > 250 µg/mL
MIC (Aspergillus flavus): > 250 µg/mL
MIC (Trichophyton benhamiae [9]): 1.95 µg/mL (≈ 6.74 µM)
MIC (Trichophyton benhamiae [10]): 3.9 µg/mL (≈ 13.5 µM)
MIC (Aspergillus niger): > 250 µg/mL
MIC (Trichophyton benhamiae [11]): 0.97 µg/mL (≈ 3.35 µM)
MIC (Trichophyton rubrum [12]): 3.57 µg/mL (≈ 12.3 µM)
MIC (Trichophyton benhamiae [13]): 1.95 µg/mL (≈ 6.74 µM)
SMILES: O=C1NC(=S)S/C1=C\c1ccccc1C(F)(F)F
